Here are results for 9 compounds from article PMC5108564, “Use of ferrous iron by metallo-β-lactamases” (Journal of Inorganic Biochemistry, 2016).

In general, IC50 refers to the midpoint of a concentration-inhibition curve. In general, Km refers to the substrate concentration at which the rate is half of its maximum. What is called kcat is the number of substrate molecules converted per active site and unit of time at saturation. One may read the kcat/Km as the turnover number divided by the Michaelis constant.

Data set [1] deals with T1, di-Fe(II) BcII (Bacillus cereus, UniProt P04190).
T1 construct: made in house; host or cells: E. coli BL21(DE3)pLysS
In words: Inhibition assay with nitrocefin as reporter substrate. Format: biochemical. Here is the method:
(§1) Enzyme concentrations were the same as those employed in equilibrium kinetic studies. […] Residual enzyme activity was determined for a range of inhibitor concentrations. Non-linear regression fitting of IC50 curves was carried out using a three-parameter dose-response curve in GraphPad Prism. Errors are expressed as: σlogIC50/logIC50×IC50 .
(§2) MBL inhibition is a current target for medicinal chemistry, [63]. Given the observed differences in metal binding geometries between the di-Fe(II) and di-Zn(II) form of BcII and in the kinetic properties of di-Fe(II) BcII and VIM-2 compared to their di-Zn(II) enzymes, we then investigated whether the two metal-substituted BcII enzymes might respond differently to known MBL inhibitors (Table 3 and Fig. S12). We were particularly interested to see if the two enzyme forms responded differently to thiol-based MBL inhibitors, since the sulfur often bridges the two metal centres as an analogue of the bridging water during inhibition, [64].

Data set [2] addresses T2, di-Zn(II) BcII (Bacillus cereus, UniProt P04190).
T2 construct: made in house; host or cells: E. coli BL21(DE3)pLysS
The data set is described as above. Format: biochemical. Here is the method:
as §1, §2

Data set [3] addresses T3, di-Zn(II) VIM-2 (Pseudomonas aeruginosa, UniProt Q9K2N0). The conditions noted are these: meropenem as substrate, VIM-2 Zn(II), [E] 5 nM.
Experimental: (§5) Steady-state kinetic studies were carried out using a Pherastar FS microplate reader and UV-Star 96 well clear microplates (Greiner Bio-One). Samples of 1 mM apo-enzyme were pre-incubated with two equivalents of TCEP·HCl for 5 min prior to addition of 3.5 equivalents of the desired metal before dilution to concentrations required for kinetic assays. For Fe(II)-substituted enzymes, plates were prepared at ≤ 2 ppm O2 using deoxygenated buffer and sealed prior to absorbance readings. […] Substrate concentrations ranged between 400 μM and 0.4 μM. The Michaelis-Menten equation was fitted to data by non-linear regression using GraphPad Prism software to calculate the Michaelis-Menten constant and the limiting rate [43].
Data set [4] addresses T4, di-Fe(II) VIM-2 (Pseudomonas aeruginosa, UniProt Q9K2N0). As to conditions: meropenem as substrate, VIM-2 Fe(II), [E] 30 nM, low O2.
Experimental: as §5
Data set [5] addresses T2, di-Zn(II) BcII. Briefly: Stopped-flow UV/Vis absorption kinetics of nitrocefin hydrolysis. Format: biochemical. The conditions noted are these: for Substrate Decay: 1:1 enzyme:nitrocefin, 5 °C; for Product accumulation: 1:1, 5 °C. Here is the method:
(§3) All metal solutions and metal-substituted enzymes for stopped-flow kinetics were prepared at ≤ 40 ppm O2 using deoxygenated buffers. Buffers used were: 50 mM HEPES pH 7.5, 200 mM NaCl; 50 mM MES pH 6.5, 200 mM NaCl; 50 mM MES pH 5.5, 200 mM NaCl. All buffers were treated with Chelex 100 to remove residual metal ions. Aliquots of apo-enzyme were diluted to 100 μM by addition of reaction buffer (1 mL final volume). The enzyme was incubated with two equivalents of tris(2-carboxyethyl)phosphine hydrochloride salt (TCEP·HCl), by addition of 2 μL of a 100 mM stock, for 5 min. Metal-substituted enzymes were then produced by the addition of 3.5 equivalents of metal salt to the apo-enzyme (3.5 μL of a 100 mM stock in buffer). […] Spectra were recorded over 100 s using a photodiode-array detector. Subsequent analysis of kinetic traces was carried out using Origin 8.5 [41]. Curves corresponding to substrate depletion (390 nm) and product accumulation (485 nm) were fitted by a single exponential function, whilst 665 nm features were fitted by a double exponential function.
(§4) Note that difference spectra were employed to identify the λmax of the feature and indicate that the feature corresponds to an independent species. […] Thus the observation of a visible reaction intermediate absorbing at 665 nm depends on the particular metal-enzyme combination employed.

Data set [6] addresses T1, di-Fe(II) BcII. The description is as above. Format: biochemical. Details: k1 / k-1 / k2 / k3 / k4 / k5: unit not given here. The conditions noted are these: for Substrate Decay / Product accumulation / Intermediate Decay / Intermediate accumulation: Fe(II), 1:1, 5 °C; for k1: 50 µM enzyme, 50 µM nitrocefin. Here is the method:
as §3, §4
The observation of an intermediate at 665 nm with di-Fe(II) BcII strongly correlates with increasing pH, with a larger change in absorbance amplitude at pH 7.5 (ΔAbsmax at pH 7.5 is 0.25 compared to ΔAbsmax at pH 6.5 and 5.5 of 0.15 and 0.05, respectively, Fig. 2 & Figs. S4–5). […] Data fitting using the Kintek Explorer package was unable to distinguish between linear and branched pathways (Fig. S11), but in both fittings the decay of the intermediate species was identified as the rate-limiting step (k3 and k4 in Tables S4 and S5, respectively). Although intermediate decay is apparently rate limiting, a negligible amount of intermediate is seen at pH 5.5. This may be explained either by a branched pathway, in which the branch with no intermediate is favoured by lower pH, or by a linear pathway in which the rate of decay of the intermediate rises with a decrease in pH thus preventing an observable accumulation of intermediate.

In data set [7] the target is T4, di-Fe(II) VIM-2. Described as above. As to conditions: 1:1, 5 °C. Format: biochemical. Further details: His-tag (3C protease site) (N, cleaved yes); made in house; host or cells: E. coli BL21(DE3)pLysS. How it is done:
as §3, §4

The target of data set [8] is T3, di-Zn(II) VIM-2. The description is as above. It counts as biochemical. Details: His-tag (3C protease site) (N, cleaved yes); made in house; host or cells: E. coli BL21(DE3)pLysS. The conditions noted are these: 1:1, 5 °C. Here is the method: as §3, §4
The subject of data set [9] is C[C@@H](O)[C@H]1C(=O)N2C(C(=O)O)=C(S[C@@H]3CN[C@H](C(=O)N(C)C)C3)[C@H](C)[C@H]12. In words: purified protein, by the assay type. As to conditions: other: meropenem as substrate, [E] 2 nM.
Experimental: as §5
The test system of data set [10] is O=C(Cc1cccs1)N[C@@H]1C(=O)N2C(C(=O)O)=C(/C=C/c3ccc([N+](=O)[O-])cc3[N+](=O)[O-])CS[C@H]12. In words: purified protein, by the assay type. As to conditions: other: nitrocefin as substrate.
Setting [11] is: Kintek Explorer fit, branched mechanism, pH 7.5, 5°C.
Where [12] appears, read: Kintek Explorer fit, linear mechanism, pH 7.5, 5°C.

Several values for one entry are separate records, joined by “and”; a condition that tells them apart may be missing. Equal values may be shown once.

T1 sequence (P04190 31-257): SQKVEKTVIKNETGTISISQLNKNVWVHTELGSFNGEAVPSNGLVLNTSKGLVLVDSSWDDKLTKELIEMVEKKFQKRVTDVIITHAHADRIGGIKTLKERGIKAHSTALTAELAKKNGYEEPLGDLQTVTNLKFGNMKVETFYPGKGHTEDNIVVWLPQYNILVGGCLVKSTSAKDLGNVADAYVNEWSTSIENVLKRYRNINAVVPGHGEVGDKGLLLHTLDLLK
T2 sequence (P04190 31-257): as above

For the compound `O=C(O)CN(CCN(CC(=O)O)CC(=O)O)CC(=O)O` [EDTA], the IC50 on di-Fe(II) BcII [1] turned out to be 4700 ± 100 µM; on di-Zn(II) BcII [2] it was 7500 ± 300 µM.
For `O=C(O)/C(S)=C/c1c(Cl)ccc(Cl)c1Cl` [ML302F], the IC50 was found to be 0.38 ± 0.08 µM against di-Fe(II) BcII [1] and 0.046 ± 0.001 µM at di-Zn(II) BcII [2]. For the same compound, the “fold difference in IC50” value on di-Fe(II) BcII [1] (di-Fe(II) BcII versus di-Zn(II) BcII) is listed as around 10 fold.
With `O=C(O)C(S)c1ccccc1` (stereo not shown) [Thiomandelic acid], the IC50 on di-Fe(II) BcII [1] stood at 2.8 ± 0.8 µM; on di-Zn(II) BcII [2], 1.3 ± 0.3 µM.
Consider `C[C@@H](O)[C@H]1C(=O)N2C(C(=O)O)=C(S[C@@H]3CN[C@H](C(=O)N(C)C)C3)[C@H](C)[C@H]12` [meropenem], for which, at di-Zn(II) VIM-2 [3], the Km stood at 10 ± 2 µM and the kcat turned out to be 2.4 ± 0.1 s⁻¹. For the same compound, on di-Fe(II) VIM-2 [4], the Km was 16 ± 2 µM and the turnover number (kcat) is 0.5 ± 0.0 s⁻¹.
Take `O=C(Cc1cccs1)N[C@@H]1C(=O)N2C(C(=O)O)=C(/C=C/c3ccc([N+](=O)[O-])cc3[N+](=O)[O-])CS[C@H]12` [nitrocefin]: the Substrate Decay is 4.16 s⁻¹ and 4.16 ± 0.01 s⁻¹ on di-Zn(II) BcII [5] (pH 5.5, 390 nm); 3.24 ± 0.01 s⁻¹ at di-Zn(II) BcII [5] (pH 6.5, 390 nm); 2.55 s⁻¹ and 2.55 ± 0.01 s⁻¹ at di-Zn(II) BcII [5] (pH 7.5, 390 nm); 3.88 s⁻¹ and 3.88 ± 0.01 s⁻¹ at di-Fe(II) BcII [6] (pH 5.5, 390 nm); 5.25 ± 0.01 s⁻¹ on di-Fe(II) BcII [6] (pH 6.5, 390 nm); 7.25 s⁻¹ and 7.25 ± 0.01 s⁻¹ at di-Fe(II) BcII [6] (pH 7.5, 390 nm). Moreover, the “Substrate Decay” value at di-Fe(II) VIM-2 [7] (pH 5.5, 390 nm) was 35 s⁻¹ and 35 ± 1 s⁻¹; at di-Fe(II) VIM-2 [7] (pH 6.5, 390 nm) it was 0.24 s⁻¹ and 0.24 ± 0.01 s⁻¹; at di-Fe(II) VIM-2 [7] (pH 7.5, 390 nm), 0.15 s⁻¹ and 0.15 ± 0.01 s⁻¹; at di-Zn(II) VIM-2 [8] (pH 5.5, 390 nm) it was 190 s⁻¹ and 190 ± 4 s⁻¹; on di-Zn(II) VIM-2 [8] (pH 6.5, 390 nm), 290 ± 10 s⁻¹; on di-Zn(II) VIM-2 [8] (pH 7.5, 390 nm), 320 s⁻¹ and 320 ± 30 s⁻¹. Also, the Product accumulation on di-Zn(II) BcII [5] (pH 5.5, 485 nm) stood at 4.13 ± 0.01 s⁻¹; at di-Zn(II) BcII [5] (pH 6.5, 485 nm) it was 3.29 ± 0.01 s⁻¹; on di-Zn(II) BcII [5] (pH 7.5, 485 nm), 2.75 ± 0.01 s⁻¹; on di-Fe(II) BcII [6] (pH 5.5, 485 nm), 5.78 ± 0.01 s⁻¹; on di-Fe(II) BcII [6] (pH 6.5, 485 nm), 4.27 ± 0.01 s⁻¹; at di-Fe(II) BcII [6] (pH 7.5, 485 nm) it was 7.20 ± 0.01 s⁻¹. In addition, the “Product accumulation” value was determined as 23.4 ± 0.5 s⁻¹ on di-Fe(II) VIM-2 [7] (pH 5.5, 485 nm); 0.44 ± 0.01 s⁻¹ at di-Fe(II) VIM-2 [7] (pH 6.5, 485 nm); 0.35 ± 0.01 s⁻¹ on di-Fe(II) VIM-2 [7] (pH 7.5, 485 nm); 93 ± 2 s⁻¹ at di-Zn(II) VIM-2 [8] (pH 5.5, 485 nm); 130 ± 4 s⁻¹ on di-Zn(II) VIM-2 [8] (pH 6.5, 485 nm); 140 ± 5 s⁻¹ at di-Zn(II) VIM-2 [8] (pH 7.5, 485 nm). In addition, the Intermediate Decay on di-Fe(II) BcII [6] (pH 6.5, 665 nm) amounted to 1.2 ± 0.1 s⁻¹; on di-Fe(II) BcII [6] (pH 7.5, 665 nm), 1.4 ± 0.1 s⁻¹; on di-Zn(II) VIM-2 [8] (pH 5.5, 665 nm), 120 ± 10 s⁻¹; on di-Zn(II) VIM-2 [8] (pH 6.5, 665 nm) it was 160 ± 30 s⁻¹; at di-Zn(II) VIM-2 [8] (pH 7.5, 665 nm), 180 ± 50 s⁻¹. Further, the Intermediate accumulation turned out to be 18.31 ± 0.01 s⁻¹ on di-Fe(II) BcII [6] (pH 6.5, 665 nm); 20.32 ± 0.01 s⁻¹ on di-Fe(II) BcII [6] (pH 7.5, 665 nm); 220 ± 20 s⁻¹ on di-Zn(II) VIM-2 [8] (pH 5.5, 665 nm); 320 ± 80 s⁻¹ on di-Zn(II) VIM-2 [8] (pH 6.5, 665 nm). Also, the k1 on di-Fe(II) BcII [6] (setting [11]) was 239000; at di-Fe(II) BcII [6] (setting [12]), 225000. Also, the k2 on di-Fe(II) BcII [6] (setting [11]) was 46; on di-Fe(II) BcII [6] (setting [12]), 82.7. Moreover, the k3 on di-Fe(II) BcII [6] (setting [11]) amounted to 73.4; on di-Fe(II) BcII [6] (Kintek Explorer fit, linear mechanism, pH 7.5, 5°C, intermediate decay, rate-limiting) it was 7.2. Also, the k-1 on di-Fe(II) BcII [6] (setting [11]) was 0.0000001; at di-Fe(II) BcII [6] (setting [12]), 0.000000403. For the same compound, at di-Fe(II) BcII [6] (Kintek Explorer fit, branched mechanism, pH 7.5, 5°C, fixed), the k5 was 100000000. The k4 is listed as 4.18 at di-Fe(II) BcII [6] (Kintek Explorer fit, branched mechanism, pH 7.5, 5°C, intermediate decay, rate-limiting) and 100000000 on di-Fe(II) BcII [6] (Kintek Explorer fit, linear mechanism, pH 7.5, 5°C, fixed).
With di-Fe(II) BcII (Bacillus cereus), in [9] (BcII Fe(II), low O2), the Km came out at 230 ± 30 µM, the kcat was determined as 38 ± 2 s⁻¹ and the kcat/Km was found to be 170000 M⁻¹ s⁻¹. Moreover, in [10] (BcII Fe(II), [E] 2 nM, low O2), the Km worked out at 11 ± 2 µM, the kcat amounted to 12.5 s⁻¹ and the kcat/Km was 1.2e+06 M⁻¹ s⁻¹.
Consider “di-Fe(II) VIM-2 (Pseudomonas aeruginosa)”, for which, in data set [10] (VIM-2 Fe(II), [E] 1 nM, low O2), the Km turned out to be 32 ± 5 µM, the kcat is 44 s⁻¹ and the kcat/Km stood at 1.4e+06 M⁻¹ s⁻¹.
For the compound di-Zn(II) BcII (Bacillus cereus), in [9] (BcII Zn(II)), the Michaelis-Menten constant (Km) was found to be 220 ± 20 µM, the kcat came out at 89 ± 3 s⁻¹ and the specificity constant (kcat/Km) stood at 400000 M⁻¹ s⁻¹. Besides, in [10] (BcII Zn(II), [E] 2 nM), the Km came out at 12 ± 2 µM, the kcat worked out at 10.1 s⁻¹ and the catalytic efficiency (kcat/Km) was determined as 820000 M⁻¹ s⁻¹.
As for “di-Zn(II) VIM-2 (Pseudomonas aeruginosa)”, in data set [10] (VIM-2 Zn(II), [E] 0.1 nM), the Km is 9 ± 1 µM, the kcat was 143 s⁻¹ and the kcat/Km was determined as 1.6e+07 M⁻¹ s⁻¹.
